Source: BigSolDB 2.1

NC(=O)CC[C@H](N)C(=O)O
solubility (mole fraction)
Conditions	283.15 K	288.15 K	293.15 K	298.15 K	303.15 K	308.15 K	313.15 K	318.15 K	323.15 K
in 2-butanone	0.00015	0.00017	0.0002	0.000237	0.000271	0.000301	0.000338	0.000373	0.00041
in acetonitrile	3.44e-05	6.77e-05	0.000104	0.000138	0.000164	0.000192	0.000225	0.000254	0.000283
in ethanol	0.000273	0.000304	0.000337	0.000372	0.000408	0.000447	0.000494	0.000522	0.000584
in ethyl acetate	2.94e-05	5.21e-05	0.000138	0.000218	0.000293	0.000362	0.000452	0.00054	0.000653
in isobutanol	5.11e-05	0.000112	0.000163	0.000254	0.000348	0.000442	0.000556	0.000662	0.000798
in methanol	9.5e-05	0.000101	0.000114	0.000134	0.000164	0.000205	0.00025	0.000286	0.000347
in n-butanol	0.000184	0.00023	0.000291	0.00035	0.0004	0.000458	0.000522	0.000574	0.000635
in n-hexane	0.000129	0.000196	0.000263	0.000346	0.000425	0.000494	0.000554	0.000621	0.000681
in n-pentanol	8.57e-05	0.000109	0.000137	0.000163	0.000245	0.000335	0.000448	0.000556	0.000654
in n-propanol	8.13e-05	0.000115	0.000156	0.000189	0.000227	0.000266	0.000321	0.000375	0.000434
in sec-butanol	5.51e-05	0.000106	0.00017	0.000231	0.000281	0.000353	0.00042	0.000501	0.000593
in water	0.00356	0.00409	0.00471	0.00533	0.00595	0.00682	0.00811	0.0097	0.0121
